Experiments:
Assay type in all cases: in vivo
[1] = tested on: ladysthumb smartweed (Polygonum persicaria); assay: Test C
[2] = tested on: large crabgrass (Digitaria sanguinalis); assay: Test C; parameters: key: 0 was no effect; 100 was complete control
[3] = tested on: eastern black nightshade (Solanum ptycanthum); assay: Test C; parameters: key: 0 was no effect; 100 was complete control
[4] = tested on: lambsquarters (Chenopodium album); assay: Test C; parameters: key: 0 was no effect; 100 was complete control
[5] = tested on: wild poinsettia (Euphorbia heterophylla); assay: Test C; parameters: key: 0 was no effect; 100 was complete control
[6] = tested on: sandbur (Cenchrus echinatus); assay: Test E pre-/postemergence/post directed; settings: PREEMERGENCE
In short: (§1)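 Greenhouse pots; compound in non-phytotoxic solvent with surfactant, sprayed preemergence within one day of planting, postemergence at two to four leaf stage (three to twenty cm), or post directed to plant base and soil. Visual injury rated 13 to 21 days after application, 0 (none) to 100 (complete control).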

[7] = tested on: bermudagrass (Cynodon dactylon); assay: Test E pre-/postemergence/post directed
In short: as §1

[8] = tested on: alexandergrass (Brachiaria plantaginea); assay: Test E pre-/postemergence/post directed
In short: as §1

[9] = tested on: johnson grass (Sorghum halepense); assay: Test E pre-/postemergence/post directed
In short: as §1

[10] = tested on: surinam grass (Brachiaria decumbens); assay: Test E pre-/postemergence/post directed
In short: as §1

[11] = tested on: common ragweed (Ambrosia elatior); assay: Test E pre-/postemergence/post directed
In short: as §1

[12] = tested on: Spanishneedles (Bidens bipinnata); assay: Test E pre-/postemergence/post directed
In short: as §1

[13] = tested on: large crabgrass (Digitaria sanguinalis); assay: Test E pre-/postemergence/post directed
In short: as §1

[14] = tested on: itchgrass (Rottboellia exaltata); assay: Test E pre-/postemergence/post directed
In short: as §1

[15] = tested on: pitted morningglory (Ipomoea lacunosa); assay: Test E pre-/postemergence/post directed
In short: as §1

[16] = tested on: common groundsel (Senecio vulgaris); assay: Test E pre-/postemergence/post directed
In short: as §1

[17] = tested on: sandbur (Cenchrus echinatus); assay: Test E pre-/postemergence/post directed; parameters: key: 0 is no injury; 100 is complete control
In short: as §1

[18] = tested on: purple nutsedge (Cyperus rotundus); assay: Test E pre-/postemergence/post directed; parameters: key: 0 is no injury; 100 is complete control
In short: as §1

[19] = tested on: velvetleaf (Abutilon theophrasti); assay: Test C; parameters: key: 0 was no effect; 100 was complete control
[20] = tested on: arrowleaf sida (Sida rhombifolia); assay: Test C
[21] = tested on: ivyleaf morningglory (Ipomoea hederacea); assay: Test C; parameters: key: 0 was no effect; 100 was complete control

Cc1cnc(-c2ccc(C(F)(F)F)cc2)nc1Cn1ccc(C(F)(F)F)n1 [compound 9]
Plant response rating, Ladysthumb ([1]; POSTEMERGENCE, Rate 35 g/ha): 20
Plant response rating, Ladysthumb ([1]; POSTEMERGENCE, Rate 70 g/ha): 30
Plant response rating, Ladysthumb ([1]; POSTEMERGENCE, Rate 140 g/ha): 30
Plant response rating, Ladysthumb ([1]; PREEMERGENCE, Rate 35 g/ha): 35
Plant response rating, Ladysthumb ([1]; PREEMERGENCE, Rate 70 g/ha): 85
Plant response rating, Ladysthumb ([1]; PREEMERGENCE, Rate 140 g/ha): 90
Plant response rating, Large crabgrass ([2]; POSTEMERGENCE, Rate 35 g/ha): 20
Plant response rating, Large crabgrass ([2]; POSTEMERGENCE, Rate 70 g/ha): 40
Plant response rating, Large crabgrass ([2]; POSTEMERGENCE, Rate 140 g/ha): 50
Plant response rating, Large crabgrass ([2]; PREEMERGENCE, Rate 35 g/ha): 95
Plant response rating, Large crabgrass ([2]; PREEMERGENCE, Rate 70 g/ha): 100
Plant response rating, Large crabgrass ([2]; PREEMERGENCE, Rate 140 g/ha): 100
Plant response rating, E. blacknightsh ([3]; POSTEMERGENCE, Rate 35 g/ha): 100
Plant response rating, E. blacknightsh ([3]; POSTEMERGENCE, Rate 140 g/ha): 100
Plant response rating, E. blacknightsh ([3]; PREEMERGENCE, Rate 35 g/ha): 95
Plant response rating, E. blacknightsh ([3]; PREEMERGENCE, Rate 70 g/ha): 100
Plant response rating, E. blacknightsh ([3]; PREEMERGENCE, Rate 140 g/ha): 95
Plant response rating, Lambsquarters ([4]; POSTEMERGENCE, Rate 35 g/ha): 75
Plant response rating, Lambsquarters ([4]; POSTEMERGENCE, Rate 70 g/ha): 80
Plant response rating, Lambsquarters ([4]; POSTEMERGENCE, Rate 140 g/ha): 100
Plant response rating, Lambsquarters ([4]; PREEMERGENCE, Rate 35 g/ha): 95
Plant response rating, Lambsquarters ([4]; PREEMERGENCE, Rate 70 g/ha): 100
Plant response rating, Lambsquarters ([4]; PREEMERGENCE, Rate 140 g/ha): 100
Plant response rating, Wild poinsettia ([5]; POSTEMERGENCE, Rate 35 g/ha): 90
Plant response rating, Wild poinsettia ([5]; POSTEMERGENCE, Rate 70 g/ha): 90
Plant response rating, Wild poinsettia ([5]; POSTEMERGENCE, Rate 140 g/ha): 100
Plant response rating, Wild poinsettia ([5]; PREEMERGENCE, Rate 35 g/ha): 10
Plant response rating, Wild poinsettia ([5]; PREEMERGENCE, Rate 70 g/ha): 50
Plant response rating, Wild poinsettia ([5]; PREEMERGENCE, Rate 140 g/ha): 50
Plant response rating, Sandbur ([6]; Rate 125 g/ha): 10
Plant response rating, Sandbur ([6]; Rate 250 g/ha): 20
Plant response rating, Bermudagrass ([7]; POSTEMERGENCE, Rate 125 g/ha): 10
Plant response rating, Bermudagrass ([7]; POSTEMERGENCE, Rate 250 g/ha): 10
Plant response rating, Bermudagrass ([7]; PREEMERGENCE, Rate 32 g/ha): 70
Plant response rating, Bermudagrass ([7]; PREEMERGENCE, Rate 64 g/ha): 98
Plant response rating, Alexandergrass ([8]; POSTEMERGENCE, Rate 125 g/ha): 10
Plant response rating, Alexandergrass ([8]; POSTEMERGENCE, Rate 250 g/ha): 10
Plant response rating, Alexandergrass ([8]; PREEMERGENCE, Rate 32 g/ha): 30
Plant response rating, Alexandergrass ([8]; PREEMERGENCE, Rate 64 g/ha): 65
Plant response rating, Alexandergrass ([8]; PREEMERGENCE, Rate 125 g/ha): 65
Plant response rating, Johnsongrass ([9]; POSTEMERGENCE, Rate 125 g/ha): 85
Plant response rating, Johnsongrass ([9]; POSTEMERGENCE, Rate 250 g/ha): 85
Plant response rating, Johnsongrass ([9]; PREEMERGENCE, Rate 32 g/ha): 55
Plant response rating, Johnsongrass ([9]; PREEMERGENCE, Rate 64 g/ha): 75
Plant response rating, Johnsongrass ([9]; PREEMERGENCE, Rate 125 g/ha): 85
Plant response rating, Johnsongrass ([9]; PREEMERGENCE, Rate 250 g/ha): 90
Plant response rating, Surinam grass ([10]; POSTEMERGENCE, Rate 125 g/ha): 10
Plant response rating, Surinam grass ([10]; POSTEMERGENCE, Rate 250 g/ha): 10
Plant response rating, Surinam grass ([10]; PREEMERGENCE, Rate 64 g/ha): 10
Plant response rating, Surinam grass ([10]; PREEMERGENCE, Rate 125 g/ha): 20
Plant response rating, Com. ragweed ([11]; POSTEMERGENCE, Rate 125 g/ha): 10
Plant response rating, Com. ragweed ([11]; POSTEMERGENCE, Rate 250 g/ha): 10
Plant response rating, Com. ragweed ([11]; PREEMERGENCE, Rate 32 g/ha): 10
Plant response rating, Com. ragweed ([11]; PREEMERGENCE, Rate 125 g/ha): 98
Plant response rating, Spanishneedles ([12]; POSTEMERGENCE, Rate 125 g/ha): 10
Plant response rating, Spanishneedles ([12]; POSTEMERGENCE, Rate 250 g/ha): 15
Plant response rating, Spanishneedles ([12]; PREEMERGENCE, Rate 64 g/ha): 20
Plant response rating, Spanishneedles ([12]; PREEMERGENCE, Rate 125 g/ha): 30
Plant response rating, Spanishneedles ([12]; PREEMERGENCE, Rate 250 g/ha): 60
Plant response rating, Large crabgrass ([13]; POSTEMERGENCE, Rate 125 g/ha): 5
Plant response rating, Large crabgrass ([13]; POSTEMERGENCE, Rate 250 g/ha): 10
Plant response rating, Large crabgrass ([13]; PREEMERGENCE, Rate 32 g/ha): 70
Plant response rating, Itchgrass ([14]; POSTEMERGENCE, Rate 125 g/ha): 30
Plant response rating, Itchgrass ([14]; POSTEMERGENCE, Rate 250 g/ha): 30
Plant response rating, Itchgrass ([14]; PREEMERGENCE, Rate 64 g/ha): 85
Plant response rating, P. morninglory ([15]; POSTEMERGENCE, Rate 125 g/ha): 40
Plant response rating, P. morninglory ([15]; POSTEMERGENCE, Rate 250 g/ha): 50
Plant response rating, P. morninglory ([15]; PREEMERGENCE, Rate 32 g/ha): 45
Plant response rating, P. morninglory ([15]; PREEMERGENCE, Rate 64 g/ha): 60
Plant response rating, P. morninglory ([15]; PREEMERGENCE, Rate 125 g/ha): 75
Plant response rating, Com. groundsel ([16]; POSTEMERGENCE, Rate 125 g/ha): 25
Plant response rating, Com. groundsel ([16]; POSTEMERGENCE, Rate 250 g/ha): 30
Plant response rating, Com. groundsel ([16]; PREEMERGENCE, Rate 32 g/ha): 98
Plant response rating, Sandbur ([17]; POSTEMERGENCE, Rate 125 g/ha): 0
Plant response rating, Sandbur ([17]; POSTEMERGENCE, Rate 250 g/ha): 0
Plant response rating, Sandbur ([17]; PREEMERGENCE, Rate 32 g/ha): 0
Plant response rating, Sandbur ([17]; PREEMERGENCE, Rate 64 g/ha): 0
Plant response rating, Purple nutsedge ([18]; POSTEMERGENCE, Rate 125 g/ha): 0
Plant response rating, Purple nutsedge ([18]; POSTEMERGENCE, Rate 250 g/ha): 0
Plant response rating, Purple nutsedge ([18]; PREEMERGENCE, Rate 32 g/ha): 0
Plant response rating, Purple nutsedge ([18]; PREEMERGENCE, Rate 64 g/ha): 0
Plant response rating, Purple nutsedge ([18]; PREEMERGENCE, Rate 125 g/ha): 0
Plant response rating, Purple nutsedge ([18]; PREEMERGENCE, Rate 250 g/ha): 0
Plant response rating, Velvetleaf ([19]; POSTEMERGENCE, Rate 35 g/ha): 10
Plant response rating, Velvetleaf ([19]; POSTEMERGENCE, Rate 70 g/ha): 70
Plant response rating, Velvetleaf ([19]; POSTEMERGENCE, Rate 140 g/ha): 90
Plant response rating, Velvetleaf ([19]; PREEMERGENCE, Rate 35 g/ha): 75
Plant response rating, Velvetleaf ([19]; PREEMERGENCE, Rate 70 g/ha): 95
Plant response rating, Velvetleaf ([19]; PREEMERGENCE, Rate 140 g/ha): 100
Plant response rating, Arrowleaf sida ([20]; POSTEMERGENCE, Rate 35 g/ha): 80
Plant response rating, Arrowleaf sida ([20]; POSTEMERGENCE, Rate 70 g/ha): 90
Plant response rating, Arrowleaf sida ([20]; POSTEMERGENCE, Rate 140 g/ha): 90
Plant response rating, Arrowleaf sida ([20]; PREEMERGENCE, Rate 35 g/ha): 90
Plant response rating, Arrowleaf sida ([20]; PREEMERGENCE, Rate 70 g/ha): 95
Plant response rating, Arrowleaf sida ([20]; PREEMERGENCE, Rate 140 g/ha): 95
Plant response rating, I. morningglory ([21]; POSTEMERGENCE, Rate 35 g/ha): 50
Plant response rating, I. morningglory ([21]; POSTEMERGENCE, Rate 70 g/ha): 60
Plant response rating, I. morningglory ([21]; POSTEMERGENCE, Rate 140 g/ha): 100
Plant response rating, I. morningglory ([21]; PREEMERGENCE, Rate 35 g/ha): 20
Plant response rating, I. morningglory ([21]; PREEMERGENCE, Rate 70 g/ha): 50
Plant response rating, I. morningglory ([21]; PREEMERGENCE, Rate 140 g/ha): 50

Source: patent US6525001B1, “Substituted pyrimidine and pyridine herbicides” (Mid-American Commercialization Corporation, priority 1997, dated 2003)
